According to publication PMC9331544, “Molecular Physicochemical Properties of Selected Pesticides as Predictive Factors for Oxidative Stress and Apoptosis-Dependent Cell Death in Caco-2 and HepG2 Cells” (International Journal of Molecular Sciences, 2022):
Where two headings read alike, the source gives them in different places.

Tests used:
HepG2 cells [1] = experiment: Glutathione (GSH) content, Mercury Orange, flow cytometry; assay type: cell-based, human
Protocol: (§1) To assess GSH content, cells re-suspended in PBS (see Section 3.3.1) were incubated with 40 μM Mercury Orange (1-(4-chloromercuryphenyl-azo-2-naphtol) for 5 min (in the dark, room temperature), as described by du Plessis, et al..

Caco-2 cells [2] = experiment: as above; assay type: cell-based, human
Protocol: as §1

[3] = ref [47],[48],[49],[50]; cited from earlier work
HepG2 cells [4] = conditions: 24 h; for HepG2 FL2/FL1 ratio: mean ± SD
Text: (§2) Given the role of mitochondria in both oxidative stress and cell death (apoptosis), we evaluated the mitochondrial membrane potential (MMP) using the JC-1 probe (see methods for details). This probe accumulates in the mitochondria in the form of J-aggregates when in normal mitochondrial conditions (polarized) and presents red fluorescence. By contrast, in unhealthy cells, when depolarization occurs, JC-1 enters the mitochondria in lower concentrations forming monomers inducing a fluorescence shift to green fluorescence, thus the loss of MMP is observed through flow cytometry as a reduction in red (FL2) and an increase in green (FL1) fluorescence, or as a reduction in red/green (FL2/FL1) fluorescence ratio [45, 46].
(§3) Pesticide-induced oxidative stress and apoptosis/necrosis events were analysed by flow cytometry. For this, one colour and two-colour flow cytometry assays were performed, using a BD Accuri™ C6 cytometer (Franklin Lakes, NJ, USA) equipment for data acquisition. Each assay was performed at least in triplicate (n = 3) and 5000 gated events were collected from each sample. Data analysis was performed using BD Accuri™ C6 Software, version 1.0.264.21 supplied by Becton Dickinson (Franklin Lakes, NJ, USA).
(§4) Caco-2 and HepG2 cells (handled as described in Section 3.2.1) were seeded in 12-well microplates (at 5 × 10^4 cells/mL density; 750 µL/well), and allowed to adhere and stabilize for 48 h in the incubator. […] Negative control cells (non-exposed cells) were included in each assay. After a 24 h incubation with test solutions, cells were washed with phosphate buffer saline (PBS) solution and then detached from the microplates (as in Section 3.2.1) and placed in centrifuge tubes and centrifuged (5 min, 3000 rpm, bench micro-centrifuge). After eliminating the supernatant, cells were washed in PBS solution through another centrifuge cycle. Then cells were divided before being incubated with the specific markers to assess oxidative stress markers and cell apoptosis/necrosis.
(§5) Mitochondrial membrane potential was analysed using JC-1 probe following the procedures as described by the manufacturer. Caco-2 and HepG2 cells suspended in PBS were centrifuged (5 min, 3000 rpm, bench micro-centrifuge), the supernatant was removed and 200 μL of JC-1 solution (2 μM; diluted in FBS-free culture media) was added to each sample. The samples were incubated for 20 min at 37 °C (in a CO2 incubator) and then analysed by flow cytometry. Negative control, non-exposed, and positive control cells exposed to the protonophore FCCP (5 μM; carbonyl cyanide p-trifluoromethoxyphenylhydrazone) were performed in each set of experiments.

Caco-2 cells [5] = conditions: for Caco-2 FL2/FL1 ratio: mean ± SD
Text: as §2, §3, §4, §5

HepG2 cells [6] = experiment: Alamar Blue cell viability/cytotoxicity assay; assay type: cell-based, human; conditions: HepG2
Protocol: (§6) In this study, to assess the cytotoxic activity of GLY, IMD, and IMZ, human epithelial colorectal adenocarcinoma (Caco-2), cell lines service (CLS), (Eppelheim, Germany) and human hepatocellular carcinoma (HepG2) (ATCC, Rockville, Maryland, USA) cells were used. Cells were cultured in complete culture media (Dulbecco’s Modified Eagle Media (DMEM), supplemented with 1 mM L-glutamine, 10% (v/v) foetal bovine serum (FBS), and antibiotics (penicillin at 100 U/mL, and streptomycin at 100 μg/mL)) and maintained at 5% CO2/95% air; 37 °C, controlled humidity, in an incubator. Cells were grown in T25 culture flasks to near confluence. Then, these adherent cells were treated with trypsin (trypsin-EDTA), for detachment and subculture, which was stopped using complete culture medium (1:1, trypsin:culture media) as soon as cells were detached (about 6 and 8 minutes of trypsin treatment for HepG2 and Caco-2 cells, respectively). Detached cells were gently re-suspended with a Pasteur pipette and then a sample was counted using an automated cell counter (TC10™, BIORAD, Portugal). A suspension of cells in fresh culture media, at 5 × 10^4 cells/mL was prepared to seed into 96-well microplates (100 µL/well). After seeding, cells were placed in the incubator for 48 h (to adhere and stabilize) before being used, for other details see [66, 67].
(§7) Cell viability was assessed using the Alamar Blue® (AB) assay, after exposure to the pesticides. In summary, cells seeded into 96-well microplates were subjected to various concentrations of the pesticides (GLY: 0–1 mM; IMD: 0–1 mM; IMZ: 0–0.3 mM). To prepare the test solutions, the appropriate volume of the pesticide stock solution was diluted in FBS-free culture media just before its application to the cells. Stock solution of GLY was prepared in water (at 40 mM), and stock solutions of IMD and IMZ were prepared in DMSO (at 20 mM). After 24 h or 48 h of exposure, the test solutions were removed and the Alamar Blue solution (100 µL/well; 10% (v/v) in FBS-free medium) was immediately added to the cells, followed by a further 5 h incubation. The absorbance was then read at 570 and 620 nm using a microplate reader (Multiskan EX; MTX Lab Systems, Inc., Bradenton, FL, USA) and the percentage of the AB reduction was calculated according to the manufacturer’s instructions, as described before. Cell viability, at each condition, was calculated and expressed as percentage of control cells (non-exposed cells).
(§8) The concentrations needed to reduce cell viability by 50% (IC50) were calculated from three independent experiments (each one performed in quadruplicates), as described.

Caco-2 cells [7] = experiment: Alamar Blue cell viability/cytotoxicity assay; assay type: cell-based, human
Protocol: as §6, §7, §8

[8] = Alamar Blue cell viability/cytotoxicity assay; assay type: cell-based, human; conditions: human, mean ± SD (n = 4), read-out: IC50 of pesticide-induced cytotoxicity
Protocol: as §6, §7, §8

Structure (SMILES): C=CCOC(Cn1ccnc1)c1ccc(Cl)cc1Cl (centres unmarked) [Imazalil, imazalil]
- increase in GSH content vs control (HepG2 cells [1]; HepG2, 75 μM, 24 h): 1.97 fold
- change in GSH content vs control (in words) (HepG2 cells [1]; HepG2, 24 h, tested concentrations): dose-dependent increase in GSH content
- increase in GSH content vs control (Caco-2 cells [2]; Caco-2, 250 μM, 24 h): 1.59 fold
- change in GSH content vs control (in words) (Caco-2 cells [2]; Caco-2, 24 h, tested concentrations): dose-dependent increase in GSH content
- Partition Coefficient n-octanol/water (Log Pow) [3]: 4.56
- Water solubility [3]: 1.4 g/L
- FL2/FL1 ratio reduction (% of control) (HepG2 cells [4]; HepG2, 25 μM): 56.22±16.07 % of control
- HepG2 FL2/FL1 ratio (HepG2 cells [4]; HepG2, 25 μM): 0.10±0.03
- FL2/FL1 ratio reduction (% of control) (HepG2 cells [4]; HepG2, 50 μM): 57.15±8.10 % of control
- HepG2 FL2/FL1 ratio (HepG2 cells [4]; HepG2, 50 μM): 0.10±0.02
- FL2/FL1 ratio reduced, relative to negative control (HepG2 cells [4]; HepG2, 75 μM): 3.38 times
- FL2/FL1 ratio reduction (% of control) (HepG2 cells [4]; HepG2, 75 μM): 72.95±0.28 % of control
- HepG2 FL2/FL1 ratio (HepG2 cells [4]; HepG2, 75 μM): 0.06±0.01
- FL2/FL1 ratio reduction (% of control) (HepG2 cells [4]; HepG2, 75 μM, listed as IMZ): ~ 73 % of control
- FL2/FL1 ratio reduction (% of control) (Caco-2 cells [5]; Caco-2, 50 μM, 24 h): 30.83±9.05 % of control
- Caco-2 FL2/FL1 ratio (Caco-2 cells [5]; Caco-2, 50 μM, 24 h): 0.55±0.02
- FL2/FL1 ratio reduced, relative to negative control (Caco-2 cells [5]; Caco-2, 75 μM, 24 h): 1.54 times
- FL2/FL1 ratio reduction (% of control) (Caco-2 cells [5]; Caco-2, 75 μM, 24 h): 34.30±6.61 % of control
- Caco-2 FL2/FL1 ratio (Caco-2 cells [5]; Caco-2, 75 μM, 24 h): 0.52±0.03
- FL2/FL1 ratio reduction (% of control) (Caco-2 cells [5]; Caco-2, 75 μM, 24 h, listed as IMZ): ~ 34 % of control
- FL2/FL1 ratio reduction (% of control) (Caco-2 cells [5]; Caco-2, 250 μM, 24 h): 96.08±0.47 % of control
- Caco-2 FL2/FL1 ratio (Caco-2 cells [5]; Caco-2, 250 μM, 24 h): 0.03±0.01
- change in mitochondrial membrane potential (in words) (Caco-2 cells [5]; Caco-2, 24 h, tested concentrations, listed as IMZ): induced high changes in Caco-2 MMP
- decrease in IC50 when doubling the exposure time (24 h to 48 h) (HepG2 cells [6]): 2 fold
- IC50 for Caco-2 cells relative to HepG2 cells (Caco-2 cells [7]; 24 h exposure): 2.7 fold
- IC50 for Caco-2 cells relative to HepG2 cells (Caco-2 cells [7]; 48 h exposure): 4 fold
- IC50 at 24 h relative to IC50 at 48 h (Caco-2 cells [7]; Caco-2): 1.35 fold
- IC50 (Caco-2 cells [7]; Caco-2, 24 h exposure, mean ± SD (n = 4), read-out: IC50 of pesticide-induced cytotoxicity): 254 ± 3 µM
- IC50 at 24 h ([8]; Caco-2 cells, Caco-2, 24 h exposure): 254 ± 3.37 µM
- IC50 at 48 h ([8]; Caco-2 cells, Caco-2, 48 h exposure): 187 ± 2 µM
- IC50 at 24 h ([8]; HepG2 cells, HepG2, 24 h exposure): 94 ± 12 µM
- IC50 at 48 h ([8]; HepG2 cells, HepG2, 48 h exposure): 47 ± 3 µM
